Legend:
[1] = tested on: GK rats with spontaneous diabetes; test: Test Example 2: measurement of nerve conduction velocity in GK rats with spontaneous diabetes; type: in vivo; settings: for Nerve conduction velocity (m/sec) Before administration / Nerve conduction velocity (m/sec) 4 weeks later: GK rats; for Nerve conduction velocity (m/sec) Before administration: baseline before oral administration
Protocol: (§1) At the test method was to use four groups, i.e., one group of Wistar rats as control, two groups of GK rats with spontaneous diabetes administered by the test substance and one group of the GK rats not administered by the test substance. Before testing, glucose tolerance and nerve conduction velocity were measured. Then the test substance was orally given for 4 weeks (one group at a dose of 30µg/-Kg/day and another group at a dose of 300µg/Kg/day), and the animals were then checked for glucose tolerance and nerve conduction velocity.
In similar way to Test Example 1, variations in nerve conduction velocity were measured for (17S)-17,20-dimethylisocarbacyclin methyl ester [=(17S)-17,20-dimethyl-9(0)-methano-Δ^6(9α)-prostaglandin I₁ methyl ester as test substance.

[2] = tested on: GK rats with spontaneous diabetes; test: Test Example 1: measurement of nerve conduction velocity in GK rats with spontaneous diabetes; type: in vivo; settings: for Nerve conduction velocity (m/sec) Before administration: baseline before oral administration
Source text: A test substance, (17S)-17,20-dimethylisocarbacyclin [=(17S)-17,20-dimethyl-9(0)-methano-Δ^6(9α)-prostaglandin I₁] was used to observe any improvement effect on nervous disorder of GK rats with spontaneous diabetes.
as §1

[3] = 300µg/Kg/day orally for 4 weeks

SMILES	Nerve conduction velocity (m/sec) Before administration ([1]; 30µg/Kg/day group) [m/sec]	Nerve conduction velocity (m/sec) 4 weeks later ([1]; 30µg/Kg/day orally for 4 weeks) [m/sec]	Nerve conduction velocity (m/sec) Before administration ([1]; 300µg/Kg/day group) [m/sec]	Nerve conduction velocity (m/sec) 4 weeks later [1, 3] [m/sec]	Improvements on nerve conduction velocity ([1]; both groups, 30µg/Kg/day and 300µg/Kg/day, after 4 weeks, in comparison with the control group of GK rats)	Nerve conduction velocity (m/sec) Before administration ([2]; 30µg/Kg/day group) [m/sec]	Nerve conduction velocity (m/sec) 4 weeks later ([2]; 30µg/Kg/day orally for 4 weeks) [m/sec]	Nerve conduction velocity (m/sec) Before administration ([2]; 300µg/Kg/day group) [m/sec]	Nerve conduction velocity (m/sec) 4 weeks later [2, 3] [m/sec]
CCCC[C@H](C)C[C@H](O)/C=C/[C@@H]1[C@H]2CC(CCCCC(=O)OC)=C[C@H]2C[C@H]1O [(17S)-17,20-dimethyl-9(0)-methano-Δ^6(9α)-prostaglandin I₁ methyl ester]	30.9 ± 1.0	38.1 ± 1.0	32.4 ± 0.7	37.5 ± 1.4	Improvements on nerve conduction velocity were observed	–	–	–	–
CCCC[C@H](C)C[C@H](O)/C=C/[C@@H]1[C@H]2CC(CCCCC(=O)O)=C[C@H]2C[C@H]1O [(17S)-17,20-dimethylisocarbacyclin, (17S)-17,20-dimethyl-9(0)-methano-Δ^6(9α)-prostaglandin I₁]	–	–	–	–	–	33.7 ± 1.2	40.5 ± 0.8	35.0 ± 0.8	42.2 ± 0.9
